According to patent US20120003661A1, “METHODS AND DEVICES FOR THE SELECTIVE DETECTION OF MICROORGANISMS” (C3 JIAN, INC., priority 2010, published 2012):
“Also recorded” adds a separate entry of the source. Where two headings read alike, the source gives them in different places.

Tested on: bacteria, fungi, and/or yeasts
Format: binding
[1] = microorganism(s) that the targeting peptide binds, as listed in Table 2
[2] = microorganism(s) listed as target(s) of the targeting peptide, wrapped target lists given cell by cell
[3] = microorganism(s) the targeting peptide binds, as listed in Table 2

Row | Substance | Target(s) [2] | Target(s) [3] | further results
1 | PF-C072 (KKMFSLIRKVNWIFFILFIVLDLTNVFPLIRTILFAILSRQ) | – | – | Target(s) [1]: A. naeslundii, F. nucleatum, P. gingivalis,; also recorded: S. mutans, T. denticola
2 | 1T-14 (ALAGLAGLISGK) | yeast and hyphal forms | S. mutans, S. aureus, S. epidermidis,; also recorded: C. xerosis | –
3 | 1T-259 (EKLKKILLKLAVCGKAWYTL) | F. nucleatum, P. gingivalis, T. denticola,; also recorded: S. mitis, S. mutans, S. oralis,; also recorded: S. sanguinis | – | –
4 | PF-V (KFINGVLSQFVLERK) | – | – | Target(s) [1]: S. mutans
5 | PF-024 (DLRKAK) | C. albicans hyphae; also recorded: M. luteus, C. albicans, MRSA, E. faecalis,; also recorded: C. jeikeium | – | –
6 | PF-174 (RGGDSPARRRPGLAGPGGPG) | S. epidermidis, P. aeruginosa, C. jeikeium | – | –
7 | 1T-185 (HYHFLLEFGFHKGDYLE) | – | A. naeslundii, F. nucleatum, P. gingivalis,; also recorded: T. denticola, S. gordonii,; also recorded: S. mitis, S. mutans, S. oralis,; also recorded: S. salivarious, S. sanguinis | –
8 | 1T-299 (SMLTSFLRSKNTRSLKMYKDVHF) | A. naeslundii, F. nucleatum, S. epidermidis,; also recorded: S. gordonii, S. mitis,; also recorded: S. mutans, S. oralis, S. salivarious,; also recorded: S. sanguinis | – | –
9 | 1T-114 (RQAPGPGLVTITAACSAPGSRSR) | – | A. naeslundii, P. gingivalis, S. epidermidis,; also recorded: S. gordonii, S. mitis,; also recorded: S. mutans, S. oralis, S. sanguinis | –
10 | 1T-268 (PITPKKEKCGLGTYAPKNPVFSKSRV) | F. nucleatum, S. mutans, S. oralis,; also recorded: S. sanguinis | – | –
11 | 1T-266 (RAGTWLVVDEIR) | S. sanguinis | – | –
12 | 1T-42 (TVLDWLSLALATGLFVYLLVALLRADRA) | – | S. aureus, S. epidermidis, C. xerosis,; also recorded: C. striatum, P. aeruginosa | –
13 | PF-C259 (AEIQPHCLSVL) | – | – | Target(s) [1]: F. nucleatum, S. mutans
14 | PF-005 (MESIFKIKLMNGICRSENMNMKKKNKGEKI) | S. epidermidis, E. coli, MRSA, S. pneumoniae,; also recorded: E. faecalis | – | –
15 | TT-311 (AIFDAMHNL) | S. mutans, S. sobrinus | – | –
16 | PF-C143 (VVFGGGDRLV) | – | – | Target(s) [1]: A. naeslundii, F. nucleatum, P. gingivalis,; also recorded: S. mutans, T. denticola
17 | 1T-97 (GVAERNLDRITVAVAIIWTITIVGLGLVAKLG) | – | A. naeslundii, F. nucleatum, P. gingivalis,; also recorded: S. epidermidis, S. gordonii,; also recorded: S. mitis, S. mutans, S. oralis,; also recorded: S. salivarious, S. sanguinis | –
18 | 1T-110 (LAAKTAVCVGRAFM) | – | A. naeslundii, P. gingivalis, S. epidermidis,; also recorded: S. gordonii, S. mitis,; also recorded: S. mutans, S. oralis, S. sanguinis | –
19 | 1T-133 (YFIKDDNEALSKDWEVIGNDLKGTIDKYGKEFKVR) | – | A. naeslundii, P. gingivalis, S. epidermidis,; also recorded: S. gordonii, S. mitis,; also recorded: S. mutans, S. oralis, S. salivarious,; also recorded: S. sanguinis | –
20 | 1T-203 (YPFCLATVDHLPEGLSVTDYERVQRLVSQFLLNKEER) | – | A. naeslundii, F. nucleatum, P. gingivalis,; also recorded: S. epidermidis, S. gordonii,; also recorded: S. mitis, S. mutans, S. oralis,; also recorded: S. salivarious, S. sanguinis | –
21 | PF-023 (MTKNTIISLENEKTQINDSENESSDLRKAK) | M. luteus, C. jeikeium | – | –
22 | PF-800 (WYYFDNNGYM) | – | – | Target(s) [1]: S. mutans

Row | Substance | Target(s) [2] | Target(s) [3] | further results
23 | PF-015 (SIDKRNLYNLKYYE) | E. faecalis, C. jeikeium | – | –
24 | PF-068 (SHLINNFGLSVINPSTPICLNFSPVFNLLTVYGITCN) | S. epidermidis, M. luteus, P. mirabilis,; also recorded: E. coli, P. aeruginosa,; also recorded: C. albicans, MRSA, S. pneumoniae,; also recorded: E. faecalis, C. jeikeium | – | –
25 | PF-050 (SYYLKRREEKGK) | S. epidermidis, M. luteus, E. coli,; also recorded: C. jeikeium | – | –
26 | 1T-61 (HATLLPAVREAISRQLLPALVPRG) | – | P. aeruginosa | –
27 | 1T-140 (IKGTIAFVGEDYVEIRVDKGVKLTFRKSAIANVINNNQQ) | – | A. naeslundii, F. nucleatum, P. gingivalis,; also recorded: S. epidermidis, S. gordonii,; also recorded: S. mitis, S. mutans, S. oralis,; also recorded: S. salivarious, S. sanguinis | –
28 | TT-306 (KILNEAEGKLLKVIEKNGEIDIEEI) | F. nucleatum | – | –
29 | PF-004 (ARLSKAIIIAVIVVYHLDVRGLF) | S. epidermidis, B. subtilis, B. fragilis,; also recorded: E. coli, P. aeruginosa, C. albicans,; also recorded: S. pneumoniae, E. faecalis,; also recorded: C. jeikeium | – | –
30 | PF-058 (FADQSQDNA) | S. epidermidis, M. luteus, E. coli,; also recorded: C. albicans, MRSA, C. jeikeium,; also recorded: C. jejuni | – | –
31 | 1T-136 (ELLTQIRLALLYSVNEW) | – | A. naeslundii, F. nucleatum, P. gingivalis,; also recorded: S. epidermidis, S. gordonii,; also recorded: S. mitis, S. mutans, S. oralis,; also recorded: S. salivarious, S. sanguinis | –
32 | PF-138 (AVHHSLLFR) | S. epidermidis, M. luteus, P. mirabilis,; also recorded: E. coli, C. albicans,; also recorded: MRSA, C. jeikeium, C. jejuni | – | –
33 | 1T-233 (TDQELEHLIVTELESKRLDFTYSKDITEFFDEAFPEYDQNY) | – | A. naeslundii, P. gingivalis, S. epidermidis,; also recorded: S. gordonii, S. mitis,; also recorded: S. mutans, S. oralis, S. salivarious,; also recorded: S. sanguinis | –
34 | 1T-76 (EMRLSKFFRDFILWRKK) | – | S. pneumoniae | –
35 | PF-062 (MKKKRINNDILGRMIYSSSIDKRNLYNLKYYE) | S. epidermidis, M. luteus, E. coli,; also recorded: P. aeruginosa, MRSA, S. pneumoniae,; also recorded: E. faecalis, C. jeikeium | – | –
36 | 1T-262 (LSLPLIVLTKSI) | A. naeslundii, F. nucleatum, P. gingivalis,; also recorded: S. epidermidis, S. gordonii,; also recorded: S. mitis, S. mutans, S. oralis,; also recorded: S. salivarious, S. sanguinis | – | –
37 | PF-634 (MPKARPVNHNKKKSKITIKSNFTLFYMFNP) | C. albicans hyphae | – | –
38 | 1T-184 (ALLVLNLLLMQFFFGKNM) | – | A. naeslundii, F. nucleatum, P. gingivalis,; also recorded: T. denticola, S. gordonii,; also recorded: S. mitis, S. mutans, S. oralis,; also recorded: S. salivarious, S. sanguinis | –
39 | 1T-139 (AVAGAAVGALLGNDARSTAVGAAIGGALGAGAGELTKNK) | – | A. naeslundii, S. gordonii, S. mitis,; also recorded: S. mutans, S. oralis | –
40 | 1T-200 (MRFKRFDRDYALSGDNVFEVLTASCDVIERNLSYREMCGLMQ) | – | A. naeslundii, F. nucleatum, S. epidermidis,; also recorded: S. gordonii, S. mitis,; also recorded: S. mutans, S. oralis, S. salivarious,; also recorded: S. sanguinis | –
41 | PF-C137 (QRMYWFKRGFETGDFSAGDTFAELK) | – | – | Target(s) [1]: A. naeslundii, F. nucleatum, P. gingivalis,; also recorded: S. mutans
42 | 1T-48 (KLQVHHGRATHTLLLQPPLCAPGTIR) | – | S. aureus, S. epidermidis, C. jeikeium,; also recorded: C. xerosis, C. striatum,; also recorded: P. aeruginosa | –
43 | 1T-102 (WKRLWPARILAGHSRRRMRWMVVWRYFAAT) | – | A. naeslundii, F. nucleatum, P. gingivalis,; also recorded: S. epidermidis, S. gordonii,; also recorded: S. mitis, S. mutans, S. oralis,; also recorded: S. salivarious, S. sanguinis | –
44 | 1T-43 (DRCLSVLSWSPPKVSPLI) | – | C. jeikium, P. aeruginosa | –

Row | Substance | Target(s) [2] | Target(s) [3] | further results
45 | 1T-272 (QLAPIDKQLKAVKKIAFYESESTAAKAVTVA) | F. nucleatum, S. mutans, S. oralis,; also recorded: S. sanguinis | – | –
46 | 1T-294 (YDKIADGVFKIGKRGVL) | T. denticola | – | –
47 | 1T-111 (GRLSRREEDPATSIILLRGAYRMAVF) | – | A. naeslundii, F. nucleatum, P. gingivalis,; also recorded: S. epidermidis, S. gordonii,; also recorded: S. mitis, S. mutans, S. oralis,; also recorded: S. salivarious, S. sanguinis | –
48 | PF-020 (MKIILLLFLIFGFIVVVTLKSEHQLTLFSI) | S. epidermidis, M. luteus, C. albicans,; also recorded: MRSA, S. pneumoniae,; also recorded: E. faecalis | – | –
49 | PF-052 (QELINEAVNLLVKSK) | S. epidermidis, M. luteus, E. coli,; also recorded: MRSA, E. faecalis, C. jeikeium,; also recorded: C. jejuni | – | –
50 | 1T-287 (KGYPLPFQYRLNNH) | P. gingivalis, T. denticola, S. gordonii,; also recorded: S. mitis, S. mutans, S. oralis,; also recorded: S. salivarious, S. sanguinis | – | –
51 | PF-159 (TMAFVEKAQLRVPVGDDLPV) | S. epidermidis | – | –
52 | 1T-25 (VGLDVSVLVLFFGLQLLSVLLGAMIR) | – | S. aureus, S. epidermidis, C. xerosis,; also recorded: C. striatum, P. aeruginosa | –
53 | PF-128 (GIKVVAARFEEIQFSENFDSIILA) | M. luteus, P. aeruginosa, E. faecalis | – | –
54 | 1T-127 (YDPVPKRKNKNSEGKREE) | – | A. naeslundii, F. nucleatum, P. gingivalis,; also recorded: T. denticola, S. gordonii,; also recorded: S. mitis, S. mutans, S. oralis,; also recorded: S. salivarious, S. sanguinis | –
55 | 1T-67 (GQRQRLTCGRVSGCSEGPSREAAR) | – | S. aureus, S. epidermidis, C. jeikeium,; also recorded: C. xerosis, C. striatum,; also recorded: P. aeruginosa | –
56 | 1T-153 (YIACPGYFY) | – | A. naeslundii, F. nucleatum, P. gingivalis,; also recorded: S. epidermidis, S. gordonii,; also recorded: S. mitis, S. mutans, S. oralis,; also recorded: S. salivarious, S. sanguinis | –
57 | PF-003 (MNNWIKVAQISVTVINEVIDIMKEKQNGGK) | S. epidermidis, M. luteus, P. mirabilis,; also recorded: C. albicans, MRSA, C. jeikeium | – | –
58 | 1T-89 (HEDDKRRGMSVEVLGFEVVQHEE) | – | S. mitis, S. mutans | –
59 | PF-007 (MGIIAGIIKVIKSLIEQFTGK) | S. epidermidis, M. luteus, E. coli,; also recorded: P. aeruginosa, C. albicans,; also recorded: MRSA, S. pneumoniae, E. faecalis,; also recorded: C. jeikeium | – | –
60 | PF-045 (LDINDYRSTY) | S. epidermidis, E. coli, E. faecalis,; also recorded: C. jejuni | – | –
61 | PF-S024 (SKRGRKRKDRRKKKANHGKRPNS) | Corynebacteria spp. | – | –
62 | 1T-193 (LMIFDKHANLKYKYGNRSFGVEAIM) | – | S. sanguinis | –
63 | PF-152 (VGYFIWKDSHSRKG) | S. epidermidis, C. albicans,; also recorded: MRSA, E. faecalis, C. jeikeium | – | –
64 | 1T-197 (TEILNFLITVCADRENWKIKHGLSDSVLLIFFARFTGAEYW) | – | A. naeslundii, F. nucleatum, P. gingivalis,; also recorded: S. epidermidis, S. gordonii,; also recorded: S. mitis, S. mutans, S. oralis,; also recorded: S. salivarious, S. sanguinis | –
65 | PF-C181 (KMRAGQVVFIYKLILVLLFYVLQKLFDLKKGCF) | – | – | Target(s) [1]: P. gingivalis
66 | 1T-141 (KKFIILLFILVQGLIFSATKTLSDIIAL) | – | F. nucleatum, P. gingivalis, S. epidermidis,; also recorded: S. gordonii, S. mitis,; also recorded: S. mutans, S. oralis, S. sanguinis | –
